Experimental data taken from US20230241226A1, “COMPOUNDS FOR TARGETED DEGRADATION OF CARRIER PROTEINS AND USES THEREOF” (CeMM - Forschungszentrum für Molekulare Medizin GmbH, priority 2019, published 2023).

Key:
Strep/HA SLC9A6 = biological target: T1, Strep/HA SLC9A6 (Homo sapiens, UniProt Q92581); assay: Selectivity across SLC9 family: degradation of exogenous Strep/HA SLC9A6; assay type: cell-based; conditions: HAP1; 250 or 750 nM; 16 hours
T1 construct: expressed in transfected cells; host or cells: HAP1 (lentiviral, pRRL Strep-HA; cDNA synthesized by Genescript)
Experimental: (§1) (E) Selectivity of d9A1-2 was tested across HAP1 cell lines expressing Strep/HASLC9A1, 9A4, 9A5, 9A8, 9A2, 9B2, 9A6, 9A9, and 9A3. Cells were treated with varying concentrations of d9A1-2 for 16 hours, after which degradation of the exogenous SLCs was monitored.
(§2) SLC1A5, SLC2A1, SLC2A3, SLC16A1, SLC38A1, SLC38A2 were obtained as gateway-compatible pENTR/pDONR vectors from the Harvard PlasmID Repository. SLC39A7 was obtained from Dharmacon, GE Healthcare. The following vectors were synthesized by Genescript: SLC4A4, SLC7A3, SLC38A9, SLC25A1, SLC9A1, SLC9A2, SLC9A3, SLC9A4, SLC9A5, SLC9A6, SLC9A7, SLC9A8, and SLC9B2. SLC30A9, SLC33A1, SLC35B2, SLC25A26, and MTCH2 were a gift from the RESOLUTE consortium. cDNAs were transferred into gateway-compatible lentiviral expression vectors: pLX305 dTAG vectors (Addgene #91797/8) or pRRL Strep-HA (described previously43, EF1a promotor driven expression) using LR recombination (ThermoFisher Scientific). […]
(§3) For immunoblotting, whole cell extracts were prepared using RIPA lysis buffer (25 mM Tris/HCl pH 7.6, 150 mM NaCl, 1% NP-40, 1% sodium deoxycholate, 0.1% SDS, EDTA-free protease inhibitor (Roche) and phosphatase inhibitors 2+3 (Sigma- Aldrich)). […] Protein extracts were quantified and normalized using the BCA assay (Thermo Scientific). […]

Strep/HA SLC9A9 = biological target: T2, Strep/HA SLC9A9 (Homo sapiens, UniProt Q8IVB4); assay: Selectivity across SLC9 family: degradation of exogenous Strep/HA SLC9A9; assay type: cell-based; conditions: HAP1; 250 or 750 nM; 16 hours
T2 construct: expressed in transfected cells; host or cells: HAP1 (lentiviral, pRRL Strep-HA)
Experimental: as §1, §2, §3

Strep/HA SLC9B2 = biological target: T3, Strep/HA SLC9B2 (Homo sapiens, UniProt Q86UD5); assay: Selectivity across SLC9 family: degradation of exogenous Strep/HA SLC9B2; assay type: cell-based; conditions: HAP1; 250 or 750 nM; 16 hours
T3 construct: expressed in transfected cells; host or cells: HAP1 (lentiviral, pRRL Strep-HA; cDNA synthesized by Genescript)
Experimental: as §1, §2, §3

[1] = test system: Peripheral blood mononuclear cells (PBMCs); assay: Cellular viability assay (CellTiter-Glo), dose curve, FIG. 9; assay type: cell-based, human; conditions: PBMCs of healthy donors and patients (AML, multiple myeloma, B cell lymphoma, Hodgkin's lymphoma, CLL), 72 hours
Experimental: Relative viability of Peripheral blood mononuclear cells (PBMCs) after treatment with the d9A1-2 molecule PBMCs were isolated from healthy donors and patients with acute myeloid leukemia, multiple myeloma, B cell lymphoma and Hodgkin’s lymphoma, chronic lymphocytic leukeumia and treated with a dose curve of d9A1-2. Viability was assayed using the CellTiter-Glo assay, 72 hours post treatment.
Peripheral blood mononuclear cells (PBMCs) were isolated using Lymphoprep (Stem Cell Technologies) from healthy donors and patients with acute myeloid leukemia, multiple myeloma, B cell lymphoma, Hodgkin’s lymphoma, chronic lymphocytic leukeumia. For comparison of different samples, compounds were transferred on black 384-well plates using an acoustic liquid handler (Echo, Labcyte). Cells were seeded in these plates at densities of 20,000 cells per well in RPMI media (Gibco), supplemented with 10% fetal calf serum (Gibco). Viability was measured after 72 hours using the CellTiter-Glo assay (Promega) on a plate reader (SpectraMax i3x, Molecular Probes). All measurements were done in technical quadruplicates. Toxicity achieved by treatment with d9A1-2 was normalized to the reference controls. Dose response fitting curves were obtained and plotted using GraphPad Prism V8. Data is presented as mean +/- SD.

dTAG-HA SLC35B2 = biological target: T4, dTAG-HA SLC35B2 (Homo sapiens, UniProt Q8TB61+Q96SW2); assay: Targeted degradation of dTAG-tagged SLC35B2 (western blot); assay type: cell-based; conditions: HAP1, 0.5 µM, 24, 48 or 72 hours
T4 construct: expressed in transfected cells
Experimental: (C)HAP1 cells expressing dTAG-HA SLC1A5, 2A3, 30A9, 35B2, MTCH2, and 33A1 were treated for 24 hours with 0.5 µM of dTAG7 or dTAG13, as indicated. HAP1 cells expressing dTAG-HA SLC2A1 and 16A1 were treated for 24 hrs with 0.5 µM of dTAG7. HAP1 cell lines expressing dTAG-HA SLC39A7, dTAG-HA SLC4A4, and SLC7A3-dTAG-HA were treated for 48 hrs with 0.5 µM of dTAG13.
SLC1A5, SLC2A1, SLC2A3, SLC16A1, SLC38A1, SLC38A2 were obtained as gateway-compatible pENTR/pDONR vectors from the Harvard PlasmID Repository. SLC39A7 was obtained from Dharmacon, GE Healthcare. The following vectors were synthesized by Genescript: SLC4A4, SLC7A3, SLC38A9, SLC25A1, SLC9A1, SLC9A2, SLC9A3, SLC9A4, SLC9A5, SLC9A6, SLC9A7, SLC9A8, and SLC9B2. […]
as §3
SLCs were ectopically expressed as fusions to a mutated FKBP domain, also known as the dTAG system. […]

T4 sequence (Q8TB61 with tags, fused parts or gaps): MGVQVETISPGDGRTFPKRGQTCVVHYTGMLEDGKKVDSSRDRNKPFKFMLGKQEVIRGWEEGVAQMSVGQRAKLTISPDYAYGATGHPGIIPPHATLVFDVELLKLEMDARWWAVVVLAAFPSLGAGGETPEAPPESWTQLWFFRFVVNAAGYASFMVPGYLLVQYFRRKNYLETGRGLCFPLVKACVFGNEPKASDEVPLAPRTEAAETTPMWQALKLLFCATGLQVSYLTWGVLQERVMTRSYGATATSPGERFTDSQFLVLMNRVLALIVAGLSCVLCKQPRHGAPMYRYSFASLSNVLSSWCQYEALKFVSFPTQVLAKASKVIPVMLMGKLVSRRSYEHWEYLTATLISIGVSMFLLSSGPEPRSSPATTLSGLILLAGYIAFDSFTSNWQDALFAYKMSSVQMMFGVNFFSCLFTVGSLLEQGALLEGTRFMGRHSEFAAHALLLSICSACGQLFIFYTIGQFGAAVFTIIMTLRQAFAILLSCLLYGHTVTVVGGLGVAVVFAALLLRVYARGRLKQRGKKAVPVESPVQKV
T4 sequence (Q96SW2 whole entry): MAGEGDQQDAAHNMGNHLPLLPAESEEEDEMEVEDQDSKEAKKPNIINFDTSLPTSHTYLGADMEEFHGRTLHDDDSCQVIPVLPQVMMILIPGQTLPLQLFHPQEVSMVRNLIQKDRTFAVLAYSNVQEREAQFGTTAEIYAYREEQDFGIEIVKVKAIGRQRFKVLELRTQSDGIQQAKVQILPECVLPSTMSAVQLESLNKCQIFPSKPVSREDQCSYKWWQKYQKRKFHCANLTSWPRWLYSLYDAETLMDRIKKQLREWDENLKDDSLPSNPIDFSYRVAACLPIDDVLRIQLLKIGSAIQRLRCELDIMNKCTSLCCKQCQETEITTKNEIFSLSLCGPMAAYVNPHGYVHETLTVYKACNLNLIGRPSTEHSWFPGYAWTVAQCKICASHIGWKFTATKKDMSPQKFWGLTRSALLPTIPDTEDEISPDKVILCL
T4 sequence (Q16531 whole entry partner): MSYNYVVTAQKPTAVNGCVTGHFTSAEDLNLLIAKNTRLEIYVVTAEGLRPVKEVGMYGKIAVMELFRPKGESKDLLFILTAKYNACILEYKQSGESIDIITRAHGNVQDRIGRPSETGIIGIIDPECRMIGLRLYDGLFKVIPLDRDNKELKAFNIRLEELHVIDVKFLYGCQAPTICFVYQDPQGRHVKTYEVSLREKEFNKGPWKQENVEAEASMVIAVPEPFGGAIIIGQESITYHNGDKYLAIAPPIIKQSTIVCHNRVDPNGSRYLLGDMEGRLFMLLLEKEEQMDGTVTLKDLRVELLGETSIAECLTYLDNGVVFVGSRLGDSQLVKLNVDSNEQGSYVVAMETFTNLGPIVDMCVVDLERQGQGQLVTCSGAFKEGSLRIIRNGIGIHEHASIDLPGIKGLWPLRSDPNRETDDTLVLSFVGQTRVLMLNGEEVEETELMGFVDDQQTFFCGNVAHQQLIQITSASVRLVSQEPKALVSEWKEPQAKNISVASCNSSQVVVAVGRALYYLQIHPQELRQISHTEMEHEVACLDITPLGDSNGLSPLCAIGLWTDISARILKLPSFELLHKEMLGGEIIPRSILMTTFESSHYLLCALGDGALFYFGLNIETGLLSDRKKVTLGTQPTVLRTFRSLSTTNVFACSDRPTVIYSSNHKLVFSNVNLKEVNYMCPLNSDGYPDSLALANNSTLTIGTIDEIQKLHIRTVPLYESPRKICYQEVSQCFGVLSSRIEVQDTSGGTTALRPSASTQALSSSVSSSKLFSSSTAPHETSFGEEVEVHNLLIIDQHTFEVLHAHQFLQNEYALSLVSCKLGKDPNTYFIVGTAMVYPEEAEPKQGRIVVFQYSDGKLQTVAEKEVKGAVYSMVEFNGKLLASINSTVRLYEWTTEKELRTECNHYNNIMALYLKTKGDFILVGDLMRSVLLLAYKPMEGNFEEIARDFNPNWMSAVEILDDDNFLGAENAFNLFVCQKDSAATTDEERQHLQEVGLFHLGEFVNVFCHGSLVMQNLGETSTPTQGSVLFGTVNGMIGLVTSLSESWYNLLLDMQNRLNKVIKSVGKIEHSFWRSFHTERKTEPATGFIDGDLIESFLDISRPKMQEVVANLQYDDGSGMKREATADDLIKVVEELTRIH
T2 sequence (Q8IVB4 whole entry): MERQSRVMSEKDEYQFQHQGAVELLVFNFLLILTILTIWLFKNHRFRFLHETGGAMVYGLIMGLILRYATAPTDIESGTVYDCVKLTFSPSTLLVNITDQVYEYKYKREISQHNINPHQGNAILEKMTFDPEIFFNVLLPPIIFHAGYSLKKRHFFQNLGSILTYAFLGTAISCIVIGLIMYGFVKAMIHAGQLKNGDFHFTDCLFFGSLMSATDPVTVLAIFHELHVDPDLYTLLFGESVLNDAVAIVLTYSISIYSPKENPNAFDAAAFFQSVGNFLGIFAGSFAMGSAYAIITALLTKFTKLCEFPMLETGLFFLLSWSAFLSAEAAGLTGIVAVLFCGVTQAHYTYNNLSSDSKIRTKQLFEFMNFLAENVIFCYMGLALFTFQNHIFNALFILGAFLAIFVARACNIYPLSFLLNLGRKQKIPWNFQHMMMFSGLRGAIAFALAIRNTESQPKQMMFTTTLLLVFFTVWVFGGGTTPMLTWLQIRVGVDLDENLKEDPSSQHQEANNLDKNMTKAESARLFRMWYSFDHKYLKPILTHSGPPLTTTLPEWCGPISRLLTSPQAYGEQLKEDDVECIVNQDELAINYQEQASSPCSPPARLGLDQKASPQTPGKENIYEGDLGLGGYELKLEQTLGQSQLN
T3 sequence (Q86UD5 whole entry): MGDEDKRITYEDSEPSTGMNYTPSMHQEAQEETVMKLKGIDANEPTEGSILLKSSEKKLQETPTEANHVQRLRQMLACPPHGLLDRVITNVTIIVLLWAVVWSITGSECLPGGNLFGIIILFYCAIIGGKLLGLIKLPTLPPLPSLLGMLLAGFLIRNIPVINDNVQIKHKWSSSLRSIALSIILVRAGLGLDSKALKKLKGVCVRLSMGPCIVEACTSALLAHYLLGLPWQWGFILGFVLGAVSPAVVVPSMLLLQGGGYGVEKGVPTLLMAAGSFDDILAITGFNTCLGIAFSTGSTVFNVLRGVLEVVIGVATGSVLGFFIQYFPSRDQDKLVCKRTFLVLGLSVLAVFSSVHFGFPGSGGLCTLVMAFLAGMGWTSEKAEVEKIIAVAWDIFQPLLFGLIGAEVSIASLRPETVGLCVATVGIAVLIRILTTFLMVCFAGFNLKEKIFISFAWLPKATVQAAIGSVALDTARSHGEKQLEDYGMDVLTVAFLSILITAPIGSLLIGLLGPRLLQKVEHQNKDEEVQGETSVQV
T1 sequence (Q92581 1-669 isoform Q92581-1): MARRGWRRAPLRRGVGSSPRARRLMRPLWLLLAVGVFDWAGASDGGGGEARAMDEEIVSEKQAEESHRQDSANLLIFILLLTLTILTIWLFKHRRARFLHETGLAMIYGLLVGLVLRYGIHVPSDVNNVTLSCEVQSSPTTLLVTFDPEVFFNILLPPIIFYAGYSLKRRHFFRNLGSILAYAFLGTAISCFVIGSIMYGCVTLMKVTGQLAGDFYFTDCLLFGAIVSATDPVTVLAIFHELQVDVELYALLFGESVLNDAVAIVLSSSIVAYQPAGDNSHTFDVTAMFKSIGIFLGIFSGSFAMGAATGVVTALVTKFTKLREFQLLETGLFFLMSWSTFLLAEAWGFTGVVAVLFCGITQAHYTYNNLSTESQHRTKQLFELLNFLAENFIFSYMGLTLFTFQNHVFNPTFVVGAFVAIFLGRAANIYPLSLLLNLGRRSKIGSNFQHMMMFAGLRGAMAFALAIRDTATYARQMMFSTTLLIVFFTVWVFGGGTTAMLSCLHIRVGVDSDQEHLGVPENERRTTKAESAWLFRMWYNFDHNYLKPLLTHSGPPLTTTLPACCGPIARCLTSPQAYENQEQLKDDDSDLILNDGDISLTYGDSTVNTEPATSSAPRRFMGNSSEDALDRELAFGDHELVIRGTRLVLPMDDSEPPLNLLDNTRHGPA

SMILES	abundance of exogenous SLC9A6 (Strep/HA SLC9A6)	abundance of exogenous SLC9A9 (Strep/HA SLC9A9)	abundance of exogenous SLC9B2 (Strep/HA SLC9B2)	toxicity (relative viability) in patient versus healthy donor PBMCs [1]	reversibility of degradation of the target SLC (dTAG-HA SLC35B2)
Cc1cc(-c2ccc(C(=O)NCCOCCOCCOCCOCCNc3cccc4c3C(=O)N(C3CCC(=O)NC3=O)C4=O)cc2N2CCC(c3[nH]cnc3C)CC2)ccc1F (centres unmarked) [d9A1-2]	not significantly affected	not significantly affected	not significantly affected	more toxic in patient samples, than in healthy donor samples	
CC[C@H](C(=O)N1CCCC[C@H]1C(=O)O[C@H](CCc1ccc(OC)c(OC)c1)c1ccccc1OCC(=O)NCCCOCCOCCOCCCNC(=O)COc1cccc2c1C(=O)N(C1CCC(=O)NC1=O)C2=O)c1cc(OC)c(OC)c(OC)c1 (some centres unmarked) [dTAG7]					reversible degradation
